Assays:
[1] = tested on: BRAPP (broadleaf signalgrass); assay: Pre-plant incorporated (PPI) herbicidal activity, warm season; type: in vivo, Brachiaria platyphylla; conditions: PPI application
Protocol: (§1) In another set of tests, the pre-plant incorporated (PPI) activity of compounds of this invention was evaluated on the same species as for the pre-emergence tests described above. In the PPI tests the following procedure, designed to simulate PPI application, was used.
(§2) A pre-prepared topsoil mixture (described above) was placed in a pot and compacted to a depth of 1.0 to 1.25 cm from the top of the pot. Seeds of each of several monocotyledonous and dicotyledonous annual plant species were placed on top of the soil. A sufficient quantity of soil to cover the seeds and level fill the pot was weighed into an open container. A known amount of the test compound was dissolved or suspended in an organic solvent and applied by spraying to this cover soil. The cover soil was thoroughly mixed to distribute the test compound throughout the cover soil, and was then applied as a cover layer over the seeds. Untreated soil was used as a cover layer for control pots. After treatment the plants were placed in a greenhouse where they received 0.64 cm of overhead irrigation. All subsequent watering consisted of a light overhead mist and/or subirrigation as needed for germination and growth. Tables 9 and 10 below relate to warm season plant species which were placed after pre-emergence treatment in a greenhouse with a 30/21° C. day/night temperature regime. Tables 11 and 12 below relates to cool season plant species placed after pre-emergence treatment in a greenhouse or growth chamber with an 18/13° C. day/night temperature regime. Only the compounds of Examples 1, 6, 8, 11, 13 and 15-20 were included in PPI tests.
(§3) Approximately 14 days after planting and treating, the plants were observed and herbicidal efficacy recorded as percent inhibition by comparison with untreated plants.

[2] = tested on: AGSST (creeping bentgrass); assay: Pre-plant incorporated (PPI) herbicidal activity, cool season; type: in vivo, Agrostis stolonifera; conditions: weed, PPI application
Protocol: as §1, §2, §3

POLCO (wild buckwheat) = assay: as above; type: in vivo, Polygonum convolvulus; conditions: weed, PPI application
Protocol: as §1, §2, §3

STEME (common chickweed) = assay: as above; type: in vivo, Stellaria media; conditions: weed, PPI application
Protocol: as §1, §2, §3

LOLMG (annual ryegrass) = assay: as above; type: in vivo, Lolium multiflorum; conditions: weed, PPI application
Protocol: as §1, §2, §3

barley (HORVX) = assay: Selectivity test, PPI, cool season crop; type: in vivo, Hordeunm vulgare; conditions: PPI application
Protocol: as §2, §3
(§4) Additional pre-emergence and PPI tests were conducted by the procedures described above, on warm and cool season weed species in the presence of crop species, to assess herbicidal selectivity. Crop species included in warm season tests were corn (Zea mays, ZEAMX), rice (Oryza sativa, ORYSA) and soybean (Glycine max, GLYMX). Crop species included in cool season tests were wheat (Triticum aestivum, TRZAW), barley (Hordeunm vulgare, HORVX) and oilseed rape (Brassica napus, BRSNS).
(§5) Tables 15 and 16 relate to pre-emergence and PPI tests respectively on warm season species. Table 17 relates to pre-emergence tests on cool season species.

rice (ORYSA) = assay: Selectivity test, PPI, warm season crop; type: in vivo, Oryza sativa; conditions: PPI application
Protocol: as §2, §3, §4, §5

corn (ZEAMX) = assay: Selectivity test, PPI, warm season crop; type: in vivo, Zea mays; conditions: PPI application
Protocol: as §2, §3, §4, §5

[3] = tested on: GALAP (catchweed bedstraw); assay: Pre-plant incorporated (PPI) herbicidal activity, cool season; type: in vivo, Galium aparine; conditions: weed, PPI application
Protocol: as §1, §2, §3

SMILES | Percent inhibition BRAPP ([1]; 30 g/ha) | Percent inhibition BRAPP ([1]; 100 g/ha) | Percent inhibition BRAPP ([1]; 300 g/ha) | Percent inhibition BRAPP ([1]; 900 g/ha) | Percent inhibition AGSST ([2]; 30 g/ha) | Percent inhibition AGSST ([2]; 100 g/ha) | Percent inhibition AGSST ([2]; 300 g/ha) | Percent inhibition AGSST ([2]; 900 g/ha) | Percent inhibition POLCO (POLCO (wild buckwheat); 30 g/ha) | Percent inhibition POLCO (POLCO (wild buckwheat); 100 g/ha) | Percent inhibition POLCO (POLCO (wild buckwheat); 300 g/ha) | Percent inhibition POLCO (POLCO (wild buckwheat); 900 g/ha) | Percent inhibition STEME (STEME (common chickweed); 30 g/ha) | Percent inhibition STEME (STEME (common chickweed); 100 g/ha) | Percent inhibition STEME (STEME (common chickweed); 300 g/ha) | Percent inhibition STEME (STEME (common chickweed); 900 g/ha) | Percent inhibition LOLMG (LOLMG (annual ryegrass); 30 g/ha) | Percent inhibition LOLMG (LOLMG (annual ryegrass); 100 g/ha) | Percent inhibition LOLMG (LOLMG (annual ryegrass); 300 g/ha) | Percent inhibition LOLMG (LOLMG (annual ryegrass); 900 g/ha) | other results
CCN(CC)C(=O)n1cnc(S(=O)(=O)C(F)(F)C(F)(F)Br)n1 [Example 4] | 0% | 60% | 100% | 100% | 100% | 100% | 100% | 100% | 0% | 60% | 90% | 100% | 10% | 60% | 80% | 95% | 80% | 100% | 100% | 100% | Percent inhibition HORVX (barley (HORVX); 30 g/ha): 0%; Percent inhibition HORVX (barley (HORVX); 100 g/ha): 0%; Percent inhibition HORVX (barley (HORVX); 300 g/ha): 50%; Percent inhibition HORVX (barley (HORVX); 900 g/ha): 90%; Percent inhibition ORYSA (rice (ORYSA); 30 g/ha): 0%; Percent inhibition ORYSA (rice (ORYSA); 100 g/ha): 0%; Percent inhibition ORYSA (rice (ORYSA); 300 g/ha): 0%; Percent inhibition ORYSA (rice (ORYSA); 900 g/ha): 20%; Percent inhibition ZEAMX (corn (ZEAMX); 30 g/ha): 0%; Percent inhibition ZEAMX (corn (ZEAMX); 100 g/ha): 5%; Percent inhibition ZEAMX (corn (ZEAMX); 300 g/ha): 40%; Percent inhibition ZEAMX (corn (ZEAMX); 900 g/ha): 50%; Percent inhibition GALAP ([3]; 30 g/ha): 75%; Percent inhibition GALAP ([3]; 100 g/ha): 100%; Percent inhibition GALAP ([3]; 300 g/ha): 100%; Percent inhibition GALAP ([3]; 900 g/ha): 100%
CCN(CC)C(=O)n1cnc(S(=O)(=O)C(F)(F)F)n1 [Example 2] | 80% | 50% | 90% | 70% | 100% | 99% | 100% | 100% | 40% | 40% | 65% | 100% | 60% | 90% | 80% | 95% | 40% | 99% | 100% | 100% | Percent inhibition HORVX (barley (HORVX); 30 g/ha): 0%; Percent inhibition HORVX (barley (HORVX); 100 g/ha): 30%; Percent inhibition HORVX (barley (HORVX); 300 g/ha): 20%; Percent inhibition HORVX (barley (HORVX); 900 g/ha): 100%; Percent inhibition ORYSA (rice (ORYSA); 30 g/ha): 0%; Percent inhibition ORYSA (rice (ORYSA); 100 g/ha): 0%; Percent inhibition ORYSA (rice (ORYSA); 300 g/ha): 0%; Percent inhibition ORYSA (rice (ORYSA); 900 g/ha): 30%; Percent inhibition ZEAMX (corn (ZEAMX); 30 g/ha): 5%; Percent inhibition ZEAMX (corn (ZEAMX); 100 g/ha): 10%; Percent inhibition ZEAMX (corn (ZEAMX); 300 g/ha): 50%; Percent inhibition ZEAMX (corn (ZEAMX); 900 g/ha): 80%; Percent inhibition GALAP ([3]; 30 g/ha): 60%; Percent inhibition GALAP ([3]; 100 g/ha): 100%; Percent inhibition GALAP ([3]; 300 g/ha): 100%; Percent inhibition GALAP ([3]; 900 g/ha): 100%
CCN(CC)C(=O)n1cnc(S(=O)(=O)C(F)(F)Cl)n1 [Example 3] | 30% | 100% | 100% | 90% | 100% | 100% | 100% | 100% | 60% | 70% | 90% | 100% | 60% | 80% | 100% | 100% | 40% | 100% | 100% | 100% | Percent inhibition HORVX (barley (HORVX); 30 g/ha): 0%; Percent inhibition HORVX (barley (HORVX); 100 g/ha): 0%; Percent inhibition HORVX (barley (HORVX); 300 g/ha): 10%; Percent inhibition HORVX (barley (HORVX); 900 g/ha): 80%; Percent inhibition ORYSA (rice (ORYSA); 30 g/ha): 0%; Percent inhibition ORYSA (rice (ORYSA); 100 g/ha): 0%; Percent inhibition ORYSA (rice (ORYSA); 300 g/ha): 20%; Percent inhibition ORYSA (rice (ORYSA); 900 g/ha): 70%; Percent inhibition ZEAMX (corn (ZEAMX); 30 g/ha): 5%; Percent inhibition ZEAMX (corn (ZEAMX); 100 g/ha): 10%; Percent inhibition ZEAMX (corn (ZEAMX); 300 g/ha): 30%; Percent inhibition ZEAMX (corn (ZEAMX); 900 g/ha): 55%; Percent inhibition GALAP ([3]; 30 g/ha): 100%; Percent inhibition GALAP ([3]; 100 g/ha): 100%; Percent inhibition GALAP ([3]; 300 g/ha): 100%; Percent inhibition GALAP ([3]; 900 g/ha): 100%

— patent US6461997B1, “Triazole sulfones having herbicidal activity” (Monsanto Technology LLC, priority 1999, dated 2002)
